Results from the NIST ThermoML archive (doi:10.1021/je1003065).

Experiment: mn = molality of the nth substance listed, in mol/kg
Settings: Liquid, Vibrating tube method

[Br-].[Li+] [lithium bromide] + CCO
Settings | mass density [kg/m3]
373.16 K, 5125 kPa, m1 = 0.5972 | 762.2
373.16 K, 9909 kPa, m1 = 1.462 | 822.87
373.16 K, 29954 kPa, m1 = 0.2335 | 764.93
373.16 K, 40172 kPa, m1 = 0.5972 | 798.56
373.16 K, 49979 kPa, m1 = 0.5972 | 807.22
373.16 K, 79993 kPa, m1 = 1.462 | 881.25
373.16 K, 89924 kPa, m1 = 1.462 | 887.37
373.16 K, 99892 kPa, m1 = 2.272 | 936.43
373.17 K, 1353 kPa, m1 = 2.272 | 860.5
373.17 K, 20097 kPa, m1 = 1.462 | 833.45
373.17 K, 29993 kPa, m1 = 1.462 | 842.95
373.17 K, 49993 kPa, m1 = 1.462 | 860.02
373.17 K, 50023 kPa, m1 = 0.2335 | 783.79
373.17 K, 59801 kPa, m1 = 0.5972 | 815.22
373.17 K, 99791 kPa, m1 = 1.462 | 893.1
373.18 K, 4985 kPa, m1 = 2.272 | 864.78
373.18 K, 9782 kPa, m1 = 2.272 | 870.51
373.19 K, 19637 kPa, m1 = 2.272 | 879.78
373.19 K, 29927 kPa, m1 = 2.272 | 888.82
373.19 K, 39864 kPa, m1 = 2.272 | 896.99
373.19 K, 40176 kPa, m1 = 1.462 | 851.97
398.11 K, 79836 kPa, m1 = 2.272 | 910.54
398.12 K, 10085 kPa, m1 = 1.462 | 801.33
398.12 K, 39724 kPa, m1 = 2.272 | 879.8
398.12 K, 49958 kPa, m1 = 2.272 | 888.51
398.12 K, 59977 kPa, m1 = 2.272 | 896.37
398.12 K, 69928 kPa, m1 = 2.272 | 903.66
398.13 K, 5252 kPa, m1 = 1.462 | 795.21
398.13 K, 29993 kPa, m1 = 2.272 | 870.74
398.13 K, 39727 kPa, m1 = 3.368 | 934.47
398.14 K, 9704 kPa, m1 = 2.272 | 848.87
398.14 K, 9986 kPa, m1 = 2.833 | 879.45
398.14 K, 19987 kPa, m1 = 3.368 | 916.46
398.14 K, 20117 kPa, m1 = 2.272 | 860.65
398.14 K, 29928 kPa, m1 = 0.2335 | 744.1
398.14 K, 29993 kPa, m1 = 3.368 | 926
398.14 K, 39959 kPa, m1 = 1.462 | 834.18
398.14 K, 40001 kPa, m1 = 0.5972 | 779.67
398.14 K, 49956 kPa, m1 = 2.833 | 917.53
398.14 K, 89925 kPa, m1 = 2.833 | 945.26
398.14 K, 99863 kPa, m1 = 0.5972 | 827.19
398.15 K, 1326 kPa, m1 = 2.833 | 868.98
398.15 K, 1425 kPa, m1 = 0.9499 | 756.04
398.15 K, 2012 kPa, m1 = 3.368 | 896.84
398.15 K, 2214 kPa, m1 = 1.462 | 790.21
398.15 K, 2451 kPa, m1 = 0.2335 | 705.58
398.15 K, 2804 kPa, m1 = 0.5972 | 733.32
398.15 K, 5002 kPa, m1 = 2.833 | 873.54
398.15 K, 5024 kPa, m1 = 0.2335 | 709.8
398.15 K, 5025 kPa, m1 = 0.9499 | 761.36
398.15 K, 9911 kPa, m1 = 3.368 | 905.89
398.15 K, 9986 kPa, m1 = 0.9499 | 768.11
398.15 K, 10023 kPa, m1 = 0.2335 | 717.61
398.15 K, 19859 kPa, m1 = 1.462 | 812.89
398.15 K, 19923 kPa, m1 = 0.9499 | 780.63
398.15 K, 19925 kPa, m1 = 2.833 | 890.37
398.15 K, 29784 kPa, m1 = 0.9499 | 791.83
398.15 K, 29946 kPa, m1 = 1.462 | 823.95
398.15 K, 29996 kPa, m1 = 0.5972 | 769.06
398.15 K, 39926 kPa, m1 = 0.9499 | 802.25
398.15 K, 39941 kPa, m1 = 0.2335 | 754.26
398.15 K, 40021 kPa, m1 = 2.833 | 909.38
398.15 K, 49925 kPa, m1 = 1.462 | 843.34
398.15 K, 49926 kPa, m1 = 3.368 | 942.62
398.15 K, 49931 kPa, m1 = 0.2335 | 764.05
398.15 K, 49993 kPa, m1 = 0.5972 | 789.19
398.15 K, 50024 kPa, m1 = 0.9499 | 811.67
398.15 K, 59926 kPa, m1 = 0.9499 | 820.12
398.15 K, 59926 kPa, m1 = 2.833 | 925.07
398.15 K, 69784 kPa, m1 = 0.9499 | 827.92
398.15 K, 69953 kPa, m1 = 0.2335 | 781.36
398.15 K, 69979 kPa, m1 = 0.5972 | 805.77
398.15 K, 79787 kPa, m1 = 0.5972 | 813.07
398.15 K, 79935 kPa, m1 = 0.9499 | 835.45
398.15 K, 80002 kPa, m1 = 2.833 | 938.86
398.15 K, 89921 kPa, m1 = 0.2335 | 795.82
398.15 K, 89936 kPa, m1 = 0.9499 | 842.54
398.15 K, 89963 kPa, m1 = 2.272 | 917.33
398.15 K, 89994 kPa, m1 = 0.5972 | 820.32
398.15 K, 99021 kPa, m1 = 0.9499 | 848.81
398.15 K, 99624 kPa, m1 = 0.2335 | 802.67
398.15 K, 99816 kPa, m1 = 1.462 | 879.34
398.15 K, 99985 kPa, m1 = 2.833 | 951.65
398.15 K, 100000 kPa, m1 = 3.368 | 976.03
398.16 K, 5023 kPa, m1 = 3.368 | 900.37
398.16 K, 19941 kPa, m1 = 0.5972 | 757.12
398.16 K, 19974 kPa, m1 = 0.2335 | 731.71
398.16 K, 29947 kPa, m1 = 2.833 | 900.32
398.16 K, 60031 kPa, m1 = 1.462 | 851.51
398.16 K, 60122 kPa, m1 = 3.368 | 950.15
398.16 K, 69784 kPa, m1 = 2.833 | 932.03
398.16 K, 69947 kPa, m1 = 1.462 | 859.16
398.16 K, 69957 kPa, m1 = 3.368 | 956.94
398.16 K, 79919 kPa, m1 = 3.368 | 963.47
398.16 K, 80014 kPa, m1 = 0.2335 | 788.79
398.16 K, 89928 kPa, m1 = 1.462 | 872.71
398.16 K, 89993 kPa, m1 = 3.368 | 969.83
398.17 K, 5071 kPa, m1 = 0.5972 | 736.75
398.17 K, 9730 kPa, m1 = 0.5972 | 743.51
398.17 K, 59907 kPa, m1 = 0.5972 | 797.77
398.17 K, 59978 kPa, m1 = 0.2335 | 773.47
398.18 K, 1833 kPa, m1 = 2.272 | 839.1
398.18 K, 80059 kPa, m1 = 1.462 | 866.49
398.19 K, 99619 kPa, m1 = 2.272 | 923.71
398.22 K, 4702 kPa, m1 = 2.272 | 842.75
